The text below walks through data of patent US12084680B2, “Methods for efficient derivation of human motor neurons from diverse spinal regions” (Wisconsin Alumni Research Foundation, priority 2016, dated 2024).

What all share (format): cell-based, human
In experiment [1] the test system is H9 hESCs. In words: NKX6.1 induction in neurally differentiating H9 hESCs after 24 h treatment (flow cytometry, RT-PCR, day 3). Here is the method: (§1) NKX6.1 is the earliest expressed marker in the motor neuron development cascade in vivo, so we examined its expression in response to Wnt/β-catenin, RA, and SHH signaling during hPSC motor neuron differentiation. H9 hESCs were differentiated in E6 medium for 2 days to initiate neural fate acquisition34 and then treated with combinations of RA, purmorphamine (PM, a small molecule agonist of SHH signaling), and CHIR for 24 h (FIG. 4A). […] Using the H9 ishcat2 line, we observed that CHIR-mediated induction of NKX6.1 was β-catenin-dependent, as the optimal 3 days of shRNA-mediated CTNNB1 knockdown upstream of CHIR treatment was required to maximally reduce NKX6.1 induction to 44±1% (FIG. 4E). The correlation between NKX6.1 knockdown and days of doxycycline treatment was presumably due to the time delay for shRNA synthesis and subsequent gene knockdown in Tet-on systems. […] Exogenously added WNT3A (200 ng/mL) could also induce NKX6.1 expression (60±14%) (FIG. 4G), providing further evidence for the involvement of Wnt/β-catenin signaling in this process. In contrast, simultaneous treatment with CHIR and BMP4 (200 ng/mL), a dorsal patterning factor, reduced the expression of NKX6.1 from 91±1% to 68±2% (FIG. 4H).
(§2) hESCs were dissociated with accutase (Thermo Fisher Scientific) and reseeded at 1×10^5 cells/cm2 in E8 medium containing 10 μM ROCK inhibitor (Y27632; R&D Systems) on 6-well polystyrene tissue culture plates coated with 100 μg/mL poly-L-ornithine (PLO; Sigma) and 8 μg/well VTN-NC. The timelines and relevant growth factors/small molecules for all differentiation procedures are described in detail in the Results section and its accompanying figures. Cells were differentiated for various amounts of time in E6 medium containing the same insulin concentration as E8 medium as described above with varying combinations of soluble factors (product information and concentration ranges are found in Table 2). For neuromesodermal induction and HOX propagation, cells were sequentially cultured with FGF8b, CHIR99021 (CHIR), GDF11, and dorsomorphin (DM) as previously described. Briefly, to initiate the neuromesodermal state, cells were changed to E6 medium followed by addition of FGF8b (200 ng/ml) 24 h later. To generate cervical neuromesodermal progenitors, cells were washed with PBS, treated with accutase, and re-seeded in E6 medium containing 200 ng/ml FGF8b, 3 μM CHIR, and 10 μM Y27632 on VTN-NC-coated plates at a density of 1.5×10^5 cells/cm^2 for 48 h. To generate thoracic neuromesodermal progenitors, cells were passaged again after 72 h of CHIR treatment and re-seeded at different densities as described in the text.
Thoracic identity was reached after an additional 24 h. Then, to reach the lumbosacral level, cells were given 30 ng/ml GDF11 and 1 μM DM for an additional 48 h. For neuroectoderm induction and generation of OLIG2^+ progenitors, FGF8b was removed at the designated time points and the concentration of CHIR was increased for 6 h as described in the text, followed by a transition to media containing RA, PM, and SHH for a period of 48 h. For differentiation of the OLIG2^+ progenitors to motor neurons, cells were subcultured by en bloc passage using a cell scraper, reseeded at a 1:200 ratio in Matrigel-coated 8-well chamber slides, and differentiated for 14 days in E6 medium containing 1 μM RA, 100 nM PM, and 100 ng/mL SHH, with media exchange every 3 days (10 μM Y27632 was included during the en bloc passaging step and removed after the first media exchange). For differentiation of lumbar cultures, 1 μM DM was included in all steps. For the myoblast co-culture experiments, OLIG2^+ cultures were en bloc passaged, frozen in E6 medium containing 10% DMSO, shipped to a different location, and thawed 1:10 in 6-well plates under the same conditions as described in FIG. 5. To facilitate neuronal maturation prior to myoblast co-culture, 5 μM DAPT (Tocris) was added from days 8-14 post-thaw. […]

The subject of experiment [2] is H9 ishcat2 hESC line. The experiment in a line: Doxycycline-inducible shRNA knockdown of β-catenin (CTNNB1) during motor neuron differentiation. The conditions noted are these: doxycycline 2 μg/mL. Here is the method:
In the ventral neural tube, SHH signaling generates OLIG2^+ motor neuron progenitors that subsequently mature into post-mitotic ISL1^+ and/or HB9^+ motor neurons. To probe the role of Wnt/β-catenin signaling during this process in vitro, we utilized the H9 ishcat2 hESC line, which harbors a doxycycline-inducible shRNA against CTNNB1.
Similarly, we induced β-catenin knockdown while differentiating the hESCs into motor neurons via E6 neural induction with RA (1 μM), purmorphamine (PM, a small molecule agonist of sonic hedgehog signaling; 100 nM), and neurotrophic factor treatment, as previously described (FIG. 3A).
as §1
hESCs were maintained on Matrigel (BD Biosciences) in E8 medium but with 10-fold lower insulin concentration (2 mg/L). Cell lines used in this study were H9 hESCs (passage 25-45) and H9 ishcat2 hESCs (passage 35-45). […]

For experiment [3], the system named is H9 hESCs. In words: Induction of NKX6.1+/PAX6+/OLIG2+ motor neuron progenitors from cervical neuromesoderm (flow cytometry, immunocytochemistry). To be noted: RA 1 μM for 2 days without PM or SHH, day 6. The protocol:
To begin, we sequentially differentiated H9 hESCs in E6 media for 1 day, and FGF8b (200 ng/mL) for 1 day, and FGF8b and CHIR (3 μM) for 2 days to generate cervical neuromesoderm (FIGS. 5A-5B). Then, we screened the effects of CHIR, PM, and SHH treatment on NKX6.1^+/PAX6^+/OLIG2^+ motor neuron progenitor induction while transitioning to media containing 1 μM RA (FIGS. 5A-5D). Prior to the addition of RA, NKX6.1 was expressed in the cervical neuromesodermal state at day 4 (80±18% NKX6.1^+; data not shown), likely due to the CHIR-induced Wnt/β-catenin signaling (FIGS. 4A-4H). Transitioning the neuromesodermal progenitors to RA-containing media for 2 days induced HOXB4^+/HOXC6^+/HOXC9^−/HOXD10^−/PAX6^+ cervical neuroectoderm in all conditions (FIGS. 5B-5C), as expected. However, without co-activation of SHH signaling by PM or SHH, NKX6.1 expression was quickly lost by day 6 (97±1% PAX6^+, 17±3% NKX6.1^+) (FIG. 5C). […] To bolster this claim, we also analyzed the abundance of full-length GLI3 versus its truncated repressor form by western blot. […] Thus, Wnt/β-catenin signaling is necessary to induce ventral identity, but its continuous activation during OLIG2 induction by SHH signaling is detrimental to motor neuron differentiation, possibly due to activation of the GLI3 repressor.
Next, we tested conditions where CHIR was removed after transitioning to media containing RA (1 μM), PM (2 μM), and SHH (2 μg/mL) (FIGS. 5A-5C).
Since NKX6.1 is a pre-requisite to OLIG2 expression, we hypothesized that the Wnt/β-catenin signaling-dependent NKX6.1 expression levels may still be too low for efficient OLIG2^+ motor neuron progenitor induction. Therefore, the concentration of CHIR was boosted to 6 or 9 μM for 6 h immediately prior to transitioning to E6 medium containing RA, PM, and SHH without CHIR (FIG. 5A). The 9 μM CHIR boost followed by a transition to media containing 1 μM RA, 2 μM PM, and 2 μg/mL SHH yielded optimal motor neuron progenitor cultures with highly uniform NKX6.1, OLIG2, and PAX6 expression (96±1%, 85±9%, and 97±2%, respectively) (FIGS. 5C-5D).
as §2
(§3) Thoracic identity was reached after an additional 24 h. Then, to reach the lumbosacral level, cells were given 30 ng/ml GDF11 and 1 μM DM for an additional 48 h. For neuroectoderm induction and generation of OLIG2^+ progenitors, FGF8b was removed at the designated time points and the concentration of CHIR was increased for 6 h as described in the text, followed by a transition to media containing RA, PM, and SHH for a period of 48 h. […]

Experiment [4] relates to H9 hESCs. The experiment in a line: Differentiation of cervical OLIG2+ progenitors to post-mitotic motor neurons (immunocytochemistry, flow cytometry). The conditions noted are these: 20 total days of differentiation, SHH, or SAG 2 μM instead of SHH.
From the text: Having optimized the efficiency of OLIG2 induction at diverse spinal cord regions, next region-specific post-mitotic motor neurons were generated. Cervical OLIG2^+ motor neuron progenitors were en bloc passaged and gradually differentiated to ISL1^+ motor neurons over a 14-day period (FIGS. 7A-7B). […] The extensive co-labeling of ISL1^+ cells with SMI32-reactive non-phosphorylated neurofilament heavy chain is indicative of motor neuron identity. Widespread HB9/βIII-tubulin motor neuron expression was also observed throughout the cultures (FIG. 7C). Since spinal motor neurons in vivo are observed to be both ISL1^+, ISL1^+/HB9^+, and HB9^+ but are all SMI32 reactive, flow cytometry of the SMI32^+ cells is proposed to best represent the total percentage of motor neurons in each culture. Moreover, the use of SAG (2 μM), a small molecule Smoothened agonist45, instead of SHH yielded similar efficiencies (72±4% SMI32^+, 63±13% ISL1^+, and 65±15% HB9^+) (FIG. 7C). High efficiencies were also observed for thoracic cultures, whereas lumbar cultures saw a ˜10% decrease in efficiency (FIG. 7C). For all regions, ISL1^+ motor neurons predominantly co-labeled with FOXP1 (70-80% in cervical motor neurons and 40-60% in thoracic and lumbar motor neurons) versus LHX3 markers (20-30% in cervical and thoracic cultures and 15-20% in lumbar cultures) (FIG. 7C). […] These trends agree with the observed distribution of columnar motor neuron phenotype in the cervical, thoracic and lumbar spinal cord in vivo, and it is consistent with our prior observations of motor neuron populations derived using the deterministic HOX patterning protocol.
as §3

In the case of `CC1=C2C[C@H]3[C@@H](CC=C4C[C@@H](O)CC[C@@]43C)[C@@H]2CC[C@]12O[C@@H]1C[C@H](C)CN[C@H]1[C@H]2C` [Cyclopamine], in experiment [1] (CHIR 6 μM plus Cyclopamine 5 μM, 24 h), the “NKX6.1 expression (flow cytometry)” value is given as “did not diminish NKX6.1 expression”. Regarding `C[C@H]1c2cccc(O)c2C(=O)C2=C(O)[C@]3(O)C(=O)C(C(N)=O)=C(O)[C@@H](N(C)C)[C@@H]3[C@@H](O)[C@@H]21` [Doxycycline], the “reduction of CTNNB1 expression (qPCR relative to RPS18)” value in experiment [2] (day 3) came to 87%. The “NKX6.1 expression (flow cytometry)” value in experiment [2] (β-catenin knockdown, day 16) was 2±1%.

Turning to `c1ccc2c(Oc3nc(Nc4ccc(N5CCOCC5)cc4)c4ncn(C5CCCCC5)c4n3)cccc2c1` [PM, Purmorphamine], in experiment [1] (combined RA 1 μM and PM 1 μM, no CHIR), the “NKX6.1 induction within 24 h” value is recorded as “did not induce NKX6.1”.

Turning to `CC1=C(/C=C/C(C)=C/C=C/C(C)=C/C(=O)O)C(C)(C)CCC1` [RA, Retinoic acid], in experiment [3], the “NKX6.1+ cells” value worked out at 17±3% and the “PAX6+ cells” value was found to be 97±1%. `CNC1CCC(N(Cc2cccc(-c3ccncc3)c2)C(=O)c2sc3ccccc3c2Cl)CC1` (centres unmarked) [SAG]: in experiment [4], the “HB9+ cells” value is given as 65±15%, the “ISL1+ cells” value was 63±13% and the “SMI32+ cells” value is on record as 72±4%.

B1: WNT3A: soluble WNT3A, Wnt polypeptide ligand activating Wnt/β-catenin signaling (protein, UniProt P56704 19-352, looked up)
Protein Wnt-3a: SYPIWWSLAVGPQYSSLGSQPILCASIPGLVPKQLRFCRNYVEIMPSVAEGIKIGIQECQHQFRGRRWNCTTVHDSLAIFGPVLDKATRESAFVHAIASAGVAFAVTRSCAEGTAAICGCSSRHQGSPGKGWKWGGCSEDIEFGGMVSREFADARENRPDARSAMNRHNNEAGRQAIASHMHLKCKCHGLSGSCEVKTCWWSQPDFRAIGDFLKDKYDSASEMVVEKHRESRGWVETLRPRYTYFKVPTERDLVYYEASPNFCEPNPETGSFGTRDRTCNVSSHGIDGCDLLCCGRGHNARAERRREKCRCVFHWCCYVSCQECTRVYDVHTCK
For the molecule B1, the “NKX6.1 expression (flow cytometry)” value in experiment [1] (WNT3A 200 ng/mL, day 3) was 60±14%.

B2: BMP4: a dorsal patterning factor (protein, UniProt P12644 293-408, looked up)
Bone morphogenetic protein 4: SPKHHSQRARKKNKNCRRHSLYVDFSDVGWNDWIVAPPGYQAFYCHGDCPFPLADHLNSTNHAIVQTLVNSVNSSIPKACCVPTELSAISMLYLDEYDKVVLKNYQEMVVEGCGCR
With B2, in experiment [1] (simultaneous CHIR 4 μM and BMP4 200 ng/mL, day 3), the “NKX6.1 expression (flow cytometry)” value is recorded as 68±2%.
